Measurements: the supplement of paper PMC10307832

Assays:
Test in all cases: relative viability (nuclei count vs DMSO), 5 days (fraction); higher = more cells survive
Sulindac + Pemetrexed = compound: CC1=C(CC(=O)O)c2cc(F)ccc2/C1=C\c1ccc([S+](C)[O-])cc1 [Sulindac] + Nc1nc2[nH]cc(CCc3ccc(C(=O)N[C@@H](CCC(=O)O)C(=O)O)cc3)c2c(=O)[nH]1 [Pemetrexed] (partner 0.2 µM)
Summary of the method: (§1)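 Medians of duplicate plates are given as relative viability. That measure is the nuclei count in treated wells divided by the count in vehicle wells. Counts were taken on 4× images of lung cancer cell lines in 1536-well plates, 5 days after pin-tool dosing the day after seeding with one drug alone or a fixed anchor-drug dose plus five library-drug doses (not always all listed) in √10 steps.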

[1] = compound: CN[C@@H]1C[C@H]2O[C@@](C)([C@@H]1OC)n1c3ccccc3c3c4c(c5c6ccccc6n2c5c31)C(=O)NC4 [Staurosporine] + CC(C)C[C@H](NC(=O)[C@H](Cc1ccccc1)NC(=O)c1cnccn1)B(O)O [Bortezomib] (partner 0.002 µM)
Summary of the method: as §1

[2] = compound: CN[C@@H]1C[C@H]2O[C@@](C)([C@@H]1OC)n1c3ccccc3c3c4c(c5c6ccccc6n2c5c31)C(=O)NC4 [Staurosporine] + CCNC(=O)c1noc(-c2cc(C(C)C)c(O)cc2O)c1-c1ccc(CN2CCOCC2)cc1 [Luminespib] (partner 0.01 µM)
Summary of the method: as §1

[3] = compound: O=c1[nH]cc(F)c(=O)[nH]1 [5-Fluorouracil] + CCNC(=O)c1noc(-c2cc(C(C)C)c(O)cc2O)c1-c1ccc(CN2CCOCC2)cc1 [Luminespib] (partner 0.01 µM)
Summary of the method: as §1

Cell Line | relative viability (Sulindac + Pemetrexed; first compound 0.08 µM) | relative viability (Sulindac + Pemetrexed; first compound 0.253 µM) | relative viability (Sulindac + Pemetrexed; first compound 2.53 µM) | relative viability (Sulindac + Pemetrexed; first compound 8 µM) | relative viability ([1]; first compound 0.005 µM) | relative viability ([1]; first compound 0.01581 µM) | relative viability ([1]; first compound 0.05 µM) | relative viability ([1]; first compound 0.1581 µM) | relative viability ([1]; first compound 0.5 µM) | relative viability ([2]; first compound 0.005 µM) | relative viability ([2]; first compound 0.01581 µM) | relative viability ([2]; first compound 0.05 µM) | relative viability ([2]; first compound 0.1581 µM) | relative viability ([2]; first compound 0.5 µM) | relative viability ([3]; first compound 0.02 µM) | relative viability ([3]; first compound 0.2 µM) | relative viability ([3]; first compound 0.6325 µM) | relative viability ([3]; first compound 2 µM) | relative viability (Sulindac + Pemetrexed; first compound 0.8 µM)
NCI-H2347 | 0.429 | 0.394 | 0.461 | 0.414 | 1.21 | 0.443 | 0.359 | 0.413 | 0.402 | 0.4 | 0.262 | 0.216 | 0.228 | 0.263 | 0.41 | 0.72 | 0.41 | 0.411 | –
NCI-H2405 | 1.14 | 1.17 | 0.926 | 1.15 | 0.314 | 0.165 | 0.188 | 0.163 | 0.134 | 0.282 | 0.148 | 0.0814 | 0.112 | 0.0639 | 0.707 | 0.786 | 0.676 | 0.693 | 0.971
NCI-H3122 | 0.203 | 0.194 | 0.176 | 0.214 | 1.04 | 0.355 | 0.947 | 0.821 | 0.362 | 0.0697 | – | 0.0639 | 0.0502 | 0.0521 | 0.104 | 0.09 | 0.095 | 0.088 | 0.207
PC-3 [JPC-3] | 1.07 | 1.04 | 1.07 | 1.19 | 0.866 | – | 0.511 | 0.275 | 0.316 | 0.628 | 0.474 | 0.319 | 0.323 | 0.272 | 0.66 | 0.753 | 0.621 | 0.524 | 0.738
PC-14 | 0.122 | 0.118 | 0.13 | 0.147 | 0.838 | 0.428 | 0.293 | 0.0723 | 0.065 | 0.11 | 0.101 | 0.103 | 0.132 | 0.118 | 0.117 | 0.151 | 0.171 | 0.191 | 0.162
RERF-LC-KJ | 0.458 | 0.486 | 0.447 | 0.519 | 1.15 | 0.926 | 0.674 | 0.322 | 0.242 | 0.97 | 0.671 | 0.266 | 0.222 | 0.237 | 1.42 | 1.24 | 1.22 | 0.904 | 0.506
SK-LU-1 | 1.13 | 1.05 | 1.02 | 1.02 | 0.906 | – | 0.255 | 0.2 | 0.179 | 0.156 | 0.117 | – | 0.117 | 0.108 | 0.196 | 0.216 | 0.231 | 0.193 | 0.821
SW 1573 | 0.91 | 0.887 | 0.754 | 0.9 | 0.712 | 0.444 | 0.192 | 0.101 | 0.0911 | 0.096 | 0.0703 | 0.091 | 0.0676 | 0.0574 | 0.253 | 0.228 | 0.323 | 0.169 | 0.737
